Results on 13 molecules are retold here after patent publication US20230212180A1, “SUBSTITUTED PYRAZINE COMPOUND, PHARMACEUTICAL COMPOSITION COMPRISING SAME, AND USE THEREOF” (Sichuan Kelun-Biotech Biopharmaceutical Co., Ltd., priority 2020, published 2023).

Experiment [1] deals with NCI-H358 cell (human non-small cell lung cancer cell). The experiment in a line: Inhibition of the proliferation activity of NCI-H358 cell (CellTiter-Glo). In kind it is cell-based. As to conditions: 120 h, 5 days. As for the experimental part:
Test Example 4: Experiment on the Inhibition of the Proliferation Activity of NCI-H358 Cell (Human Non-Small Cell Lung Cancer Cell)
cell: NCI-H358 (Nanjing CoBioer);
(§1) kit: CellTiter-Glo® Luminescent Cell Viability Assay Kit (Promega).
(§2) inoculation amount of cell: 1500 cells/well;
incubation conditions for compounds: 37° C., 5% CO2;
(§3) incubation duration: 5 days;
(§4) detecting temperature: room temperature;
(§5) chemiluminescence detection using the BMG PHERAstar FS reader.
(§6) Cells were cultured in a medium containing 10% fetal bovine serum under the culture conditions of 37° C. and 5% CO2. An appropriate amount of cells were plated into a 96-well plate and cultured overnight in an incubator to allow the cells to adhere to the wall. The following day, the medium was removed and a complete medium containing a pre-diluted compound was added and incubated at 37° C. for 5 days. On the fifth day, the detection reagent CellTiter-Glo® was added into each well. Chemiluminescence was adopted to detect the relative luminescence units (RLUs) of the wells.
(§7) The result of a well containing cell-free medium, treated with CellTiter-Glo®, was obtained as the blank value. Cell viability (%)=(sample RLU−blank RLU)/(vehicle RLU−blank RLU)×100%, and maximum inhibition rate (%)=100%−cell viabilitymax. conc. (%). The half maximal inhibitory concentration (IC50) of the compound was calculated by fitting the curve according to the four-parameter logistic model.

For a further experiment, the target named is T1, CYP3A4 (Homo sapiens, UniProt P08684).
T1 construct: purchased Promega
T1 sequence (P08684 whole entry): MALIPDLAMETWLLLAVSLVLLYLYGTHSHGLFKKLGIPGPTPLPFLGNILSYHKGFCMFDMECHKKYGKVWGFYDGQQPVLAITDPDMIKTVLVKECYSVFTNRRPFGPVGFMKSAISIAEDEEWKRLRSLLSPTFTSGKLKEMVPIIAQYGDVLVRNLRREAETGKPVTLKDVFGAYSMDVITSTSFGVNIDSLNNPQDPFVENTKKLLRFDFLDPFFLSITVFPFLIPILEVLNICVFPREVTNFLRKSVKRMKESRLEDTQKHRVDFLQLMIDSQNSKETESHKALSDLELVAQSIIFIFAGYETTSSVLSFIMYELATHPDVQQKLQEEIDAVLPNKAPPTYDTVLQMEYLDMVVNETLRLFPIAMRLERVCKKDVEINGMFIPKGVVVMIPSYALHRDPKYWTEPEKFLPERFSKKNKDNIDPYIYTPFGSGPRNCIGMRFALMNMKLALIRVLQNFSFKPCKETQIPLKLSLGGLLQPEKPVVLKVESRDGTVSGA
The experiment in a line: Biochemical assay for CYP enzyme inhibition, P450-Glo CYP3A4 Screening System. Format: in vitro ADME. As for the experimental part:
(§8) Test Example 5: Biochemical Assay for CYP Enzyme (Cytochrome P450) Inhibition
P450-Glo™ CYP3A4 Screening System, (Promega).
(§9) BMG PHERAstar FS Luminescent.
(§10) The experiments were carried out separately according to the instructions of the kits. The steps were as follows:
3.3. Inhibition Against CYP3A4:
Test group: The test compounds at different concentrations were added into a microplate, and Luciferin-IPA ([…]), K3PO4 (100 mM), and CYP3A4 (2 nM) were added into each well, and pre-incubated at room temperature for 10 min. Thereafter, an NADPH regeneration system was added. The mixture was reacted at room temperature for 30 min. Finally, an equal volume of detection buffer was added and incubated at room temperature for 20 min, followed by chemiluminescence detection.
(§11) Negative control group: The experimental method for the negative control group was the same as that for the test group, except that the test compound was not added.
Blank control group: The experimental method for the blank control group was the same as that for the test group, except that the test compound was not added and that CYP3A4 was replaced with CYP3A4 Membrance (2 nM).
(§12) Percentage inhibition=(1−(the chemiluminescent signal value of the test compound group at a certain test concentration−the chemiluminescent signal value of the blank control group)/(the chemiluminescent signal value of the negative control group−the chemiluminescent signal value of the blank control group))×100%.
(§13) When the percentage inhibition was between 30% and 80%, a single value or a value range of the half maximal inhibitory concentration (IC50) of the compound against the CYP enzyme was estimated based on the following equation: IC50=X×(1−percentage inhibition)/percentage inhibition, wherein X was the test concentration of the compound.

Experiment [2] deals with KYSE-520 cell (human esophageal squamous cell carcinoma cell). The experiment can be described thus: Inhibition of the proliferation activity of KYSE-520 cell (CellTiter-Glo). In kind it is cell-based. As to conditions: 120 h, KYSE-520 cell proliferation, 5 days. As for the experimental part:
Test Example 2: Experiment on the Inhibition of the Proliferation Activity of KYSE-520 Cell (Human Esophageal Squamous Cell Carcinoma Cell)
cell: KYSE-520 (JCRB Cell Bank);
as §1, §2
incubation conditions for compound: 37° C., 5% CO2;
as §3, §4, §5, §6, §7

The target of a further experiment is T2, CYP1A2 (Homo sapiens, UniProt P05177).
T2 construct: purchased Promega
T2 sequence (P05177 1-516): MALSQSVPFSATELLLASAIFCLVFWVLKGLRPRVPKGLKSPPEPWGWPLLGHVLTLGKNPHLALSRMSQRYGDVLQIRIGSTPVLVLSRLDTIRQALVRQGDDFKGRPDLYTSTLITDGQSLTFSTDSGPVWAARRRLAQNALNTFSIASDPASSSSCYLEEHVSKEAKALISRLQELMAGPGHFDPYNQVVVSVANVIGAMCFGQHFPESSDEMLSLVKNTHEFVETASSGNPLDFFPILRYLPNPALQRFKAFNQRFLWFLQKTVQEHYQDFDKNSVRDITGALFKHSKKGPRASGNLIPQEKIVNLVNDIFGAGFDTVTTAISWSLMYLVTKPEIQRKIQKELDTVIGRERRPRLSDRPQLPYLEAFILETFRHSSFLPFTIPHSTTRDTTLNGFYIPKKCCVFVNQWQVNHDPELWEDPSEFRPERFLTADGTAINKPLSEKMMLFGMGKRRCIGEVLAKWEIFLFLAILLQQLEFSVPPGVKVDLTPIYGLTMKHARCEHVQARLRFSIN
The experiment in a line: Biochemical assay for CYP enzyme inhibition, P450-Glo CYP1A2 Screening System. Format: in vitro ADME. How it is done: as §8
P450-Glo™ CYP1A2 Screening System, (Promega);
as §9, §10
3.1. Inhibition Against CYP1A2:
Test group: The test compounds at different concentrations were added into a microplate, and Luciferin-ME (100 μM), K3PO4 (100 mM), and CYP1A2 (0.01 μmol/μL) were added into each well, and pre-incubated at room temperature for 10 min. Thereafter, an NADPH regeneration system was added. The mixture was reacted at room temperature for 30 min. Finally, an equal volume of detection buffer was added and incubated at room temperature for 20 min, followed by chemiluminescence detection.
as §11
Blank control group: The experimental method for the blank control group was the same as that for the test group, except that the test compound was not added and that CYP1A2 was replaced with CYP1A2 Membrance (0.01 μmol/μL).
as §12, §13

Setting [3] is: estimated from percentage inhibition, read-out: IC50 (μM) CYP3A4.

Like-named read-outs stand apart in the source and are kept apart here.

With `C[C@@H]1OCC2(CCN(c3ncc(Sc4ccnc(NCC5(O)CC5)c4Cl)nc3CO)CC2)[C@@H]1N` [Example 15, 1-((4-(5-((3S,4S)-4-amino-3-methyl-2-oxa-8-azaspiro[4.5]decan-8-yl)-6-(hydroxymethyl)pyrazin-2-ylthio)-3-chloropyridin-2-ylamino)methyl)cyclopropan-1-ol], the IC50 in experiment [1] is 0.04 µM; against CYP3A4 it was greater than 10 µM; in experiment [2] it was 0.04 µM; against CYP1A2, greater than 10 µM.
As for `Cc1nc(N2CCC3(CC2)CO[C@@H](C)[C@H]3N)c(CO)nc1Sc1ccnc(N2CC(CS(C)(=O)=O)C2)c1Cl` [Example 25, (3-((3S,4S)-4-amino-3-methyl-2-oxa-8-azaspiro[4.5]decan-8-yl)-6-(3-chloro-2-(3-(methylsulfonylmethyl)azetidin-1-yl)pyridin-4-ylthio)-5-methylpyrazin-2-yl)methanol], the IC50 is 0.15 µM in experiment [1], greater than 10 µM on CYP3A4 and greater than 10 µM against CYP1A2.
Consider `CC(O)C1CN(c2nccc(Sc3cnc(N4CCC5(CC4)CO[C@@H](C)[C@H]5N)c(CO)n3)c2Cl)C1` (stereo partly drawn) [Example 17, 1-(1-(4-(5-((3S,4S)-4-amino-3-methyl-2-oxa-8-azaspiro[4.5]decan-8-yl)-6-(hydroxymethyl)pyrazin-2-ylthio)-3-chloropyridin-2-yl)azetidin-3-yl)ethan-1-ol], for which the IC50 in experiment [1] was 0.039 µM; at CYP3A4 it was greater than 10 µM; in experiment [2], 0.03 µM; against CYP1A2, greater than 10 µM.
Take `CC(C)(O)C1CN(c2nccc(Sc3cnc(N4CCC5(CC4)Cc4ncccc4[C@H]5N)c(CO)n3)c2Cl)C1` [Example 43, (S)-2-(1-(4-(5-(5-amino-5,7-dihydrospiro[cyclopenta[b]pyridine-6,4′-piperidin]-1′-yl)-6-(hydroxymethyl)pyrazin-2-ylthio)-3-chloropyridin-2-yl)azetidin-3-yl)propan-2-ol]: the IC50 in experiment [1] was 0.008 µM; at CYP3A4 (setting [3]) it was greater than 10 µM; in experiment [2] it was 0.04 µM; on CYP1A2 (estimated from percentage inhibition, read-out: IC50 (μM) CYP1A2), greater than 10 µM.
For `C[C@@H]1OCC2(CCN(c3ncc(Sc4ccnc(N5CC(CO)(CF)C5)c4Cl)nc3CO)CC2)[C@@H]1N` [Example 42, (3-((3S,4S)-4-amino-3-methyl-2-oxa-8-azaspiro[4.5]decan-8-yl)-6-(3-chloro-2-(3-(fluoromethyl)-3-(hydroxymethyl)azetidin-1-yl)pyridin-4-ylthio)pyrazin-2-yl)methanol], the IC50 in experiment [1] is 0.044 µM; at CYP3A4 (setting [3]), greater than 10 µM; in experiment [2] it was 0.1 µM; at CYP1A2, greater than 10 µM.
As to `C[C@@H]1OCC2(CCN(c3ncc(Sc4ccnc(N5CC(CC#N)C5)c4Cl)nc3CO)CC2)[C@@H]1N` [Example 5, 2-(1-(4-(5-((3S,4S)-4-amino-3-methyl-2-oxa-8-azaspiro[4.5]decan-8-yl)-6-(hydroxymethyl)pyrazin-2-ylthio)-3-chloropyridin-2-yl)azetidin-3-yl)acetonitrile], the IC50 in experiment [1] is 0.034 µM; against CYP3A4, greater than 10 µM; in experiment [2], 0.06 µM; on CYP1A2, greater than 10 µM.
Turning to `C[C@@H]1OCC2(CCN(c3ncc(Sc4ccnc(N5CCCC5CC(N)=O)c4Cl)nc3CO)CC2)[C@@H]1N` (stereo partly drawn) [Example 19, 2-(1-(4-(5-((3S,4S)-4-amino-3-methyl-2-oxa-8-azaspiro[4.5]decan-8-yl)-6-(hydroxymethyl)pyrazin-2-ylthio)-3-chloropyridin-2-yl)pyrrolidin-2-yl)acetamide], the IC50 in experiment [1] was 0.22 µM; at CYP3A4 (setting [3]), greater than 10 µM; in experiment [2] it was 0.19 µM; on CYP1A2, greater than 10 µM.
For `COCC1CN(c2nccc(Sc3cnc(N4CCC5(CC4)CO[C@@H](C)[C@H]5N)c(CO)n3)c2Cl)C1` [Example 21, (3-((3S,4S)-4-amino-3-methyl-2-oxa-8-azaspiro[4.5]decan-8-yl)-6-(3-chloro-2-(3-(methoxymethyl)azetidin-1-yl)pyridin-4-ylthio)pyrazin-2-yl)methanol], the IC50 is 0.03 µM in experiment [1], greater than 10 µM at CYP3A4, 0.11 µM in experiment [2] and greater than 10 µM on CYP1A2.
Turning to `C[C@@H]1OCC2(CCN(c3ncc(Sc4ccnc(N5CC(C#N)(CO)C5)c4Cl)nc3CO)CC2)[C@@H]1N` [Example 47, 1-(4-(5-((3S,4S)-4-amino-3-methyl-2-oxa-8-azaspiro[4.5]decan-8-yl)-6-(hydroxymethyl)pyrazin-2-ylthio)-3-chloropyridin-2-yl)-3-(hydroxymethyl)azetidine-3-carbonitrile], the half-maximal inhibitory concentration (IC50) in experiment [1] was 0.023 µM; against CYP3A4, greater than 10 µM; in experiment [2] it was 0.04 µM; on CYP1A2, greater than 10 µM.
On to `Cc1nc(N2CCC3(CC2)CO[C@@H](C)[C@H]3N)c(CO)nc1Sc1ccnc(N2CCCC2CO)c1Cl` (some centres unmarked) [Example 1], for which the IC50 against CYP3A4 is greater than 10 µM; in experiment [2], 0.36 µM; against CYP1A2 it was greater than 10 µM.
Regarding `CC(C)(O)C1CN(c2nccc(Sc3cnc(N4CCC5(CC4)COC[C@H]5N)c(CO)n3)c2Cl)C1` [Example 13, (S)-2-(1-(4-(5-(4-amino-2-oxa-8-azaspiro[4.5]decan-8-yl)-6-(hydroxymethyl)pyrazin-2-ylthio)-3-chloropyridin-2-yl)azetidin-3-yl)propan-2-ol], the figures for the IC50 (in experiment [1]; on CYP3A4 (setting [3]); against CYP1A2) were 0.26 µM, greater than 10 µM and greater than 10 µM, respectively.
Consider `C[C@@H]1OCC2(CCN(c3ncc(Sc4ccnc(N5CC(C(C)(C)O)C5)c4F)nc3CO)CC2)[C@@H]1N` [Example 40, 2-(1-(4-(5-((3S,4S)-4-amino-3-methyl-2-oxa-8-azaspiro[4.5]decan-8-yl)-6-(hydroxymethyl)pyrazin-2-ylthio)-3-fluoropyridin-2-yl)azetidin-3-yl)propan-2-ol], for which the IC50 in experiment [1] was 0.03 µM; against CYP3A4, greater than 10 µM; on CYP1A2 it was greater than 10 µM.
Regarding `C[C@@H]1OCC2(CCN(c3cnc(Sc4ccnc(N5CC(C(C)(C)O)C5)c4Cl)cn3)CC2)[C@@H]1N` [Example 28, 2-(1-(4-(5-((3S,4S)-4-amino-3-methyl-2-oxa-8-azaspiro[4.5]decan-8-yl)pyrazin-2-ylthio)-3-chloropyridin-2-yl)azetidin-3-yl)propan-2-ol], the figures for the IC50 (in experiment [1]; at CYP3A4; at CYP1A2) were 0.13 µM, greater than 10 µM and greater than 10 µM, respectively.

The IC50 is the concentration that inhibits the measured activity by half.
